Results: patent US9738634B2, “Heterocyclic amide compound and herbicide” (SYNGENTA PARTICIPATIONS AG, priority 2013, dated 2017)

Assays:
Assay type in all cases: in vivo
oval-leafed pondweed [1] = assay: Test Example 1: weedkilling efficacy, preemergent weed treatment in the submerged state; C: oval-leafed pondweed
How it was run: (§1)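 Pots of alluvial soil flooded 4 cm deep, sown with barnyard grass, bulrush and oval-leafed pondweed and transplanted with 2.5-leaf rice. Emulsified compound applied to the water surface on sowing day at stated g/ha; greenhouse 25–30 °C, effects assessed 3 weeks after treatment.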

oval-leafed pondweed [2] = assay: Test Example 2: weedkilling efficacy, growth period weed treatment in the submerged state; C: oval-leafed pondweed
How it was run: (§2)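 Barnyard grass, bulrush and oval-leafed pondweed sown in alluvial soil under 4 cm flooding, greenhouse 25 to 30° C. At 1-2 leaf stage, water-diluted emulsion applied to the water surface at stated g/ha dosages; effects scored 3 weeks later.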

barnyard grass [3] = assay: Test Example 2: weedkilling efficacy, growth period weed treatment in the submerged state; A: barnyard grass
How it was run: as §2

barnyard grass [4] = assay: Test Example 1: weedkilling efficacy, preemergent weed treatment in the submerged state; A: barnyard grass
How it was run: as §1

transplanted rice = assay: Test Example 1: preemergent weed treatment in the submerged state, effect on crop; a: transplanted rice
How it was run: as §1

bulrush [5] = assay: Test Example 2: weedkilling efficacy, growth period weed treatment in the submerged state; B: bulrush
How it was run: as §2

bulrush [6] = assay: Test Example 1: weedkilling efficacy, preemergent weed treatment in the submerged state; B: bulrush
How it was run: as §1

| Compound | C: oval-leafed pondweed, weed kill grade (oval-leafed pondweed [1]; treatment dosage 320 g/ha) | C (oval-leafed pondweed) weedkilling efficacy grade (oval-leafed pondweed [2]; treatment dosage 320 g/ha) | A (barnyard grass) weedkilling efficacy grade (barnyard grass [3]; treatment dosage 320 g/ha) | A: barnyard grass, weed kill grade (barnyard grass [4]; treatment dosage 320 g/ha) | a: transplanted rice, effect on crop grade (transplanted rice; treatment dosage 320 g/ha) | B (bulrush) weedkilling efficacy grade (bulrush [5]; treatment dosage 320 g/ha) | B: bulrush, weed kill grade (bulrush [6]; treatment dosage 320 g/ha) | C: oval-leafed pondweed, weed kill grade (oval-leafed pondweed [1]; treatment dosage 252 g/ha) | C (oval-leafed pondweed) weedkilling efficacy grade (oval-leafed pondweed [2]; treatment dosage 252 g/ha) | A (barnyard grass) weedkilling efficacy grade (barnyard grass [3]; treatment dosage 252 g/ha) | A: barnyard grass, weed kill grade (barnyard grass [4]; treatment dosage 252 g/ha) | a: transplanted rice, effect on crop grade (transplanted rice; treatment dosage 252 g/ha) | B (bulrush) weedkilling efficacy grade (bulrush [5]; treatment dosage 252 g/ha) | B: bulrush, weed kill grade (bulrush [6]; treatment dosage 252 g/ha) |
| --- | --- | --- | --- | --- | --- | --- | --- | --- | --- | --- | --- | --- | --- | --- |
| CCOc1cc(C(F)(F)F)cc(NC(=O)C(C)(C)N2COCN(c3ccccc3)C2=O)n1 [A-2-60] | 5 (weed kill ratio 90% or more, (practically complete withering)) | 5 (weed kill ratio 90% or more, (practically complete withering)) | 5 (weed kill ratio 90% or more, (practically complete withering)) | 5 (weed kill ratio 90% or more, (practically complete withering)) | 2 (weed kill ratio 20% or more, less than 40%) | 5 (weed kill ratio 90% or more, (practically complete withering)) | 5 (weed kill ratio 90% or more, (practically complete withering)) |  |  |  |  |  |  |  |
| CC(C)(C(=O)Nc1ncc([N+](=O)[O-])s1)N1COCN(c2ccccc2)C1=O [A-1-09] | 4 (weed kill ratio 70% or more, less than 90%) | 5 (weed kill ratio 90% or more, (practically complete withering)) | 4 (weed kill ratio 70% or more, less than 90%) | 5 (weed kill ratio 90% or more, (practically complete withering)) | 0 (weed kill ratio 5% or less (practically no effect)) | 5 (weed kill ratio 90% or more, (practically complete withering)) | 5 (weed kill ratio 90% or more, (practically complete withering)) |  |  |  |  |  |  |  |
| CC(C)(C(=O)Nc1cccc(C2CC2)n1)N1COCN(c2ccccc2)C1=O [A-2-46] |  |  |  |  |  |  |  | 3 (weed kill ratio 40% or more, less than 70%) | 0 (weed kill ratio 5% or less (practically no effect)) | 4 (weed kill ratio 70% or more, less than 90%) | 5 (weed kill ratio 90% or more, (practically complete withering)) | 1 (weed kill ratio 5% or more, less than 20%) | 2 (weed kill ratio 20% or more, less than 40%) | 4 (weed kill ratio 70% or more, less than 90%) |
| CC(C)(C(=O)Nc1ccnc(Cl)c1)N1COCN(c2ccccc2)C1=O [A-4-02] |  |  |  |  |  |  |  | 5 (weed kill ratio 90% or more, (practically complete withering)) | 4 (weed kill ratio 70% or more, less than 90%) | 2 (weed kill ratio 20% or more, less than 40%) | 5 (weed kill ratio 90% or more, (practically complete withering)) | 1 (weed kill ratio 5% or more, less than 20%) | 5 (weed kill ratio 90% or more, (practically complete withering)) | 5 (weed kill ratio 90% or more, (practically complete withering)) |
| CC(C)(C(=O)Nc1ccnc(C(F)(F)F)c1)N1COCN(c2ccccc2)C1=O [A-4-06] |  |  |  |  |  |  |  | 5 (weed kill ratio 90% or more, (practically complete withering)) | 4 (weed kill ratio 70% or more, less than 90%) | 4 (weed kill ratio 70% or more, less than 90%) | 5 (weed kill ratio 90% or more, (practically complete withering)) | 0 (weed kill ratio 5% or less (practically no effect)) | 5 (weed kill ratio 90% or more, (practically complete withering)) | 5 (weed kill ratio 90% or more, (practically complete withering)) |
| CC(C)(C(=O)Nc1cncc(F)c1)N1COCN(c2ccccc2)C1=O [A-3-01] |  |  |  |  |  |  |  | 4 (weed kill ratio 70% or more, less than 90%) | 2 (weed kill ratio 20% or more, less than 40%) | 1 (weed kill ratio 5% or more, less than 20%) | 5 (weed kill ratio 90% or more, (practically complete withering)) | 1 (weed kill ratio 5% or more, less than 20%) | 5 (weed kill ratio 90% or more, (practically complete withering)) | 5 (weed kill ratio 90% or more, (practically complete withering)) |
| CC(C)(C(=O)Nc1cnc(Cl)c(Cl)c1)N1COCN(c2ccccc2)C1=O [A-3-05] | 5 (weed kill ratio 90% or more, (practically complete withering)) | 5 (weed kill ratio 90% or more, (practically complete withering)) | 4 (weed kill ratio 70% or more, less than 90%) | 3 (weed kill ratio 40% or more, less than 70%) | 0 (weed kill ratio 5% or less (practically no effect)) | 5 (weed kill ratio 90% or more, (practically complete withering)) | 5 (weed kill ratio 90% or more, (practically complete withering)) |  |  |  |  |  |  |  |
| CC(C)(C(=O)Nc1cc(Cl)cc(Cl)n1)N1COCN(c2ccccc2)C1=O [A-2-17] |  |  |  |  |  |  |  | 5 (weed kill ratio 90% or more, (practically complete withering)) | 5 (weed kill ratio 90% or more, (practically complete withering)) | 5 (weed kill ratio 90% or more, (practically complete withering)) | 5 (weed kill ratio 90% or more, (practically complete withering)) | 3 (weed kill ratio 40% or more, less than 70%) | 5 (weed kill ratio 90% or more, (practically complete withering)) | 5 (weed kill ratio 90% or more, (practically complete withering)) |
| Cc1cccc(N2COCN(C(C)(C)C(=O)Nc3cc(Cl)cc(Cl)n3)C2=O)c1 [A-6-08] | 5 (weed kill ratio 90% or more, (practically complete withering)) | 4 (weed kill ratio 70% or more, less than 90%) | 5 (weed kill ratio 90% or more, (practically complete withering)) | 5 (weed kill ratio 90% or more, (practically complete withering)) | 0 (weed kill ratio 5% or less (practically no effect)) | 5 (weed kill ratio 90% or more, (practically complete withering)) | 5 (weed kill ratio 90% or more, (practically complete withering)) |  |  |  |  |  |  |  |
| CC(C)(C(=O)Nc1ccnc(Br)c1)N1COCN(c2ccccc2)C1=O [A-4-03] |  |  |  |  |  |  |  | 5 (weed kill ratio 90% or more, (practically complete withering)) | 4 (weed kill ratio 70% or more, less than 90%) | 2 (weed kill ratio 20% or more, less than 40%) | 5 (weed kill ratio 90% or more, (practically complete withering)) | 1 (weed kill ratio 5% or more, less than 20%) | 5 (weed kill ratio 90% or more, (practically complete withering)) | 5 (weed kill ratio 90% or more, (practically complete withering)) |
| CSc1nc(NC(=O)C(C)(C)N2COCN(c3ccccc3)C2=O)ns1 [A-1-17] | 3 (weed kill ratio 40% or more, less than 70%) | 2 (weed kill ratio 20% or more, less than 40%) | 0 (weed kill ratio 5% or less (practically no effect)) | 2 (weed kill ratio 20% or more, less than 40%) | 0 (weed kill ratio 5% or less (practically no effect)) | 4 (weed kill ratio 70% or more, less than 90%) | 5 (weed kill ratio 90% or more, (practically complete withering)) |  |  |  |  |  |  |  |
| Cc1ccc(N2COCN(C(C)(C)C(=O)Nc3cc(F)cc(F)n3)C2=O)cc1 [A-6-10] | 5 (weed kill ratio 90% or more, (practically complete withering)) | 5 (weed kill ratio 90% or more, (practically complete withering)) | 4 (weed kill ratio 70% or more, less than 90%) | 5 (weed kill ratio 90% or more, (practically complete withering)) | 1 (weed kill ratio 5% or more, less than 20%) | 5 (weed kill ratio 90% or more, (practically complete withering)) | 5 (weed kill ratio 90% or more, (practically complete withering)) |  |  |  |  |  |  |  |
